# Active and inactive are the calls of the source.
# Experiments:
# [1] = ZM109 Env clade C HIV-1 fusion inhibitors, dose response, HeLa effector, CEM target cells, luciferase, cherry-pick (AID 652058); assay type: functional, cell-based
# [2] = inhibitors of clade B AD8 Env fusion, dose response, cell-based, cherry-pick (AID 652062); assay type: functional;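 further: luciferase signal from cell-cell fusion driven by HIV-1 clade B AD8 Env; potency is for inhibitors of fusion seen as a drop in luminescence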
# Nonstructural protein 1 = Nonstructural protein 1 (Influenza A virus, UniProt Q194T2); assay type: functional, Influenza A virus (A/California/07/2009(H1N1))
# Chain of Nonstructural protein 1 (Q194T2 whole entry): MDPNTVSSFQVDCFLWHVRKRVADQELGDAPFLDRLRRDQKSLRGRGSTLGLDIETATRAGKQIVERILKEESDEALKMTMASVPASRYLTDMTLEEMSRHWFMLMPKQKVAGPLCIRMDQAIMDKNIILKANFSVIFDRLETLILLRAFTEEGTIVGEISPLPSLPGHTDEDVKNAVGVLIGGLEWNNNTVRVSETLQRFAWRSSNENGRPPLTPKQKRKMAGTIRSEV
# [3] = target: T1, Histone-lysine N-methyltransferase NSD2 (Homo sapiens, UniProt O96028); assay type: biochemical
# T1 sequence (O96028 whole entry): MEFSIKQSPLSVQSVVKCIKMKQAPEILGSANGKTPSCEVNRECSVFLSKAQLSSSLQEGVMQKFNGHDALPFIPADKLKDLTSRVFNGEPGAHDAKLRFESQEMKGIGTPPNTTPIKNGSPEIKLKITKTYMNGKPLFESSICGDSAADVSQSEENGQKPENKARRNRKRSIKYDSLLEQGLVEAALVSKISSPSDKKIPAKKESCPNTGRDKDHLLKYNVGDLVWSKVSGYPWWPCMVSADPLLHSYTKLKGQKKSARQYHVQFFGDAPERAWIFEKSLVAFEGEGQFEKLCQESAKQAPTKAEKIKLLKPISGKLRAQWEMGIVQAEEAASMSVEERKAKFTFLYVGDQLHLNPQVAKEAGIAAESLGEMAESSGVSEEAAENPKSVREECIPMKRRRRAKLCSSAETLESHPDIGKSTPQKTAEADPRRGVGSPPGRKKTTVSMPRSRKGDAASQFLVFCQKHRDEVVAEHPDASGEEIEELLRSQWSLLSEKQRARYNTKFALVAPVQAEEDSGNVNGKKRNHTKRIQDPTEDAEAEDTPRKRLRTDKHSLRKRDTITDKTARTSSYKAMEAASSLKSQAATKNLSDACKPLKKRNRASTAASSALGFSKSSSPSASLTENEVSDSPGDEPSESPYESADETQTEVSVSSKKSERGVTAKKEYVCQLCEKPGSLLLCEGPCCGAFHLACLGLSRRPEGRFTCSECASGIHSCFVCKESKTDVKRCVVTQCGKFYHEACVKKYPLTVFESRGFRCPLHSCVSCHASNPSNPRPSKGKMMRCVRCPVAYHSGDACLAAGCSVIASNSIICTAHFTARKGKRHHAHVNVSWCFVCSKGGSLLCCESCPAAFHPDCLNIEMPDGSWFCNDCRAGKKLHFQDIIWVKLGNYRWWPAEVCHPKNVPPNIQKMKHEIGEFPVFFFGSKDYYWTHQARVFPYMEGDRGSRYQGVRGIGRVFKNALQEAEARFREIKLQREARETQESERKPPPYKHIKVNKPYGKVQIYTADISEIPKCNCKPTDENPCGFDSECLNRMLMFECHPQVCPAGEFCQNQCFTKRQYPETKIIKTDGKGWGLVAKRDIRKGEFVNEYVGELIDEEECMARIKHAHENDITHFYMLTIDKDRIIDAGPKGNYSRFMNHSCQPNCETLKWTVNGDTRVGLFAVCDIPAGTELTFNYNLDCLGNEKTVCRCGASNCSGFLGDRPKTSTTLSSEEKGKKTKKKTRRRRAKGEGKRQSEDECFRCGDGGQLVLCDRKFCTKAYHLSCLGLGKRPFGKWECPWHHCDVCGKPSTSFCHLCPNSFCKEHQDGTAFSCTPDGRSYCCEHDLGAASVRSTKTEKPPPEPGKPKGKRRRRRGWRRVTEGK
# [4] = human group III sPLA2 inhibitors, dose response, biochemical, QFRET, IC50 (AID 743457);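 further: green fluorescence rise as the enzyme cleaves BODIPY PC-A2 in liposomes; potency for inhibition of the enzyme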
# [5] = inhibitors of HIV Env-driven cell fusion, dose response, cherry-pick (AID 652057); assay type: functional, cell-based
# [6] = off-target signal loss in HeLa-CEM21 co-culture – HeLa F-luc CTL cells, cherry-picked, counter-screen for HIV-1 Env fusion inhibitor project, dose response (AID 652040); assay type: functional, cell-based;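 further: potency for signal decrease marking cytotoxic or nonspecific inhibition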
# Coagulation factor XII = target: T2, Coagulation factor XII (Homo sapiens, UniProt P00748); assay type: functional;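 further: activated factor XIIa alpha cleaving a fluorogenic AMC peptide substrate; inhibitor potency from loss of enzyme activity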
# T2 sequence (P00748 whole entry): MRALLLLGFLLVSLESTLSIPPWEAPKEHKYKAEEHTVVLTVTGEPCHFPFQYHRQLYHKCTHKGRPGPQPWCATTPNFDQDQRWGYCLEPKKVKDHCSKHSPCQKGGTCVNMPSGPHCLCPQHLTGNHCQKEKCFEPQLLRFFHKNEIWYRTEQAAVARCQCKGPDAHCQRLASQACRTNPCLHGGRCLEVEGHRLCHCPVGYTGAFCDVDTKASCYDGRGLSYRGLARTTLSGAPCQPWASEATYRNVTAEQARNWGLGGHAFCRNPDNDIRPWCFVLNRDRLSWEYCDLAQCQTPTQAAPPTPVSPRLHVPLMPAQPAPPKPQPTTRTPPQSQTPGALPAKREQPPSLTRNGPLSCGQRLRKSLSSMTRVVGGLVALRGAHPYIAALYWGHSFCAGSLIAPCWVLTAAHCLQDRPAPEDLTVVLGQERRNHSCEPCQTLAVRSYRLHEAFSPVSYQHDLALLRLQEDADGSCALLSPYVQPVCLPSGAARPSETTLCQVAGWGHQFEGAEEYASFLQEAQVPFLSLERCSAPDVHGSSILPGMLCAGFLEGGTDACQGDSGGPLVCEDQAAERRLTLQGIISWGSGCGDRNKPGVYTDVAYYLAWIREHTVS
# Mu-type opioid receptor = Mu-type opioid receptor (Homo sapiens, UniProt P35372); assay type: functional, cell-based;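 further: U2OS cells with beta-arrestin recruitment to OPRM1 by beta-gal complementation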
# Chain of Mu-type opioid receptor (P35372 whole entry): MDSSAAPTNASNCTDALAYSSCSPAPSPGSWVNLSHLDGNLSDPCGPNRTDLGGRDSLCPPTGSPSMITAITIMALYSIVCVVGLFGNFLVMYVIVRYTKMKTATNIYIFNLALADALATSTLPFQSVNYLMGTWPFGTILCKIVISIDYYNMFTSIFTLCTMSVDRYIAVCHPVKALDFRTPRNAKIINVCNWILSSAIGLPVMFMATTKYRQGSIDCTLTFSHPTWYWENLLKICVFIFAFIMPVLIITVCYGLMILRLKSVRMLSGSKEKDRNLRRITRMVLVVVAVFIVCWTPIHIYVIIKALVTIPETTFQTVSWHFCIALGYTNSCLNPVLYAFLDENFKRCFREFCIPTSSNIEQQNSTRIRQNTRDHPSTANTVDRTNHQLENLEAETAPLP
# [7] = target: 5-hydroxytryptamine receptor 2A (Mus musculus, UniProt P35363); assay type: functional, cell-based;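 further: CHO-K1 cells with tagged receptor and beta-arrestin; agonist potency measured as compound-induced activation of the receptor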
# Chain of 5-hydroxytryptamine receptor 2A (P35363 whole entry): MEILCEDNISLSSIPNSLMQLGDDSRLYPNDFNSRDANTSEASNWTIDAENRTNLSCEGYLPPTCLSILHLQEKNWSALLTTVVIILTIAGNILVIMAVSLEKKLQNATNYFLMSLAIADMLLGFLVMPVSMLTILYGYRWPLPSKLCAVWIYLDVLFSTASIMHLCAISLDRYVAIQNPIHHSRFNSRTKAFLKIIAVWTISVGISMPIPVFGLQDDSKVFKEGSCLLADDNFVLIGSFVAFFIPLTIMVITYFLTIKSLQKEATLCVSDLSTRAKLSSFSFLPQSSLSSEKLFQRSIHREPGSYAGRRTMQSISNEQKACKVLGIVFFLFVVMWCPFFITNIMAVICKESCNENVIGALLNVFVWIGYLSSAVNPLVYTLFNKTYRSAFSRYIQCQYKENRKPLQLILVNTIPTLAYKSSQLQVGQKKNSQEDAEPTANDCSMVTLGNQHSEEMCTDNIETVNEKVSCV
# [8] = Shn3 3'UTR reporter inhibitors, dose response, cell-based, Clone20 osteoblasts, firefly luciferase, cherry-picked (AID 624132); assay type: functional;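 further: firefly luciferase luminescence from reporter carrying the Shn3 3'UTR in osteoblasts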
# [9] = HepG2 cell cytotoxicity, dose response, cytotoxicity control for Shn3 inhibitor project, CellTiter-Glo, cherry-picked (AID 624134); assay type: functional, cell-based
# [10] = control 3'UTR Renilla luciferase suppression, dose response, counter-screen for Shn3 inhibitor project, cell-based, Clone20-Shn3RL, cherry-picked (AID 624133); assay type: functional
# [11] = A549 cell cytotoxicity, dose response, cytotoxicity control, plate reader, cherry-pick, antagonist series (AID 743412); assay type: functional, cell-based
# [12] = HepG2 cell cytotoxicity, dose response, cytotoxicity control, plate reader, cherry-pick, antagonist series (AID 743416); assay type: functional, cell-based
# [13] = LGR2 antagonists, dose response, cell-based, HEK293, CRE-luciferase reporter, cherry pick, set 2 (AID 743343); assay type: functional;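 further: transfected cells were stimulated with diluted bursicon conditioned medium after compound addition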
# [14] = MC4R antagonists, dose response, counter-screen for LGR2 antagonist project, cell-based, plate reader, cherry pick (AID 743444); assay type: functional;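 further: transfected HEK 293 cells stimulated with alpha-MSH peptide; potency of inhibitors of the alpha-MSH evoked signal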
# [15] = HEK293 cell cytotoxicity, dose response, cytotoxicity control, plate reader, cherry-picked samples (AID 743446); assay type: functional, cell-based
# Paired box protein Pax-8 = Paired box protein Pax-8 (Homo sapiens, UniProt Q06710); test: inhibitors of PAX8-driven TPO luciferase reporter, dose response, RMG-I cells, cherry-pick (AID 687027); assay type: functional, cell-based;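 further: luciferase reporter driven by Pax8 target thyroperoxidase promoter measured by SteadyGlo luminescence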
# Chain of Paired box protein Pax-8 (Q06710 whole entry): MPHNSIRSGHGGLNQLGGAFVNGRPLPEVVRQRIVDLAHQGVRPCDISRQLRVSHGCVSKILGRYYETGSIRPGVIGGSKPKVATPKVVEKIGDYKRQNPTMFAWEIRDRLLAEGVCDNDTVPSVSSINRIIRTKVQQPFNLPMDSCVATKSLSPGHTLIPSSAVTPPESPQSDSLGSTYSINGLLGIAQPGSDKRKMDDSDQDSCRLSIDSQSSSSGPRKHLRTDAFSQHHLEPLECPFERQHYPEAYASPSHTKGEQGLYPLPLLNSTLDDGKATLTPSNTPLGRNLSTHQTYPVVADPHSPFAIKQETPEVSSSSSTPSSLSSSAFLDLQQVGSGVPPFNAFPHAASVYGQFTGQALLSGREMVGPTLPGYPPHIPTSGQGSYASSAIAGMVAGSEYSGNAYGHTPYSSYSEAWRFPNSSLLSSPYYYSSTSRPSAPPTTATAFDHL
# [16] = cytotoxicity in OVCAR8 ovarian cancer cells, dose response, PAX8 project, cell-based, plate reader, dry powder samples (AID 743197); assay type: functional; settings: OVCAR-8
# [17] = target: FAD-linked sulfhydryl oxidase ALR (Homo sapiens, UniProt P55789); test: inhibitors of human ALR sulfhydryl oxidase, dose response, biochemical, H2O2 detection, luminescence, cherry-pick (AID 493248)
# Chain of FAD-linked sulfhydryl oxidase ALR (P55789 whole entry): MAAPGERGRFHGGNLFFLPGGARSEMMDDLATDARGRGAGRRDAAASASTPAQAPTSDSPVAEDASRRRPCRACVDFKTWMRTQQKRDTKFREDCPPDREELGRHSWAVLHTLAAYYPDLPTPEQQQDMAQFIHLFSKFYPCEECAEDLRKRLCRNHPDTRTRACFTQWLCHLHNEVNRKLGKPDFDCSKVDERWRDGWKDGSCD
compound,measurement,setting,value
O=C(CN1CCN(Cc2ccc(Cl)cc2)C1=O)NCCCN1CCN(c2ccc(F)cc2)CC1,AC50,[1],36 µM (active)
same,AC50,[2],27.3 µM (active)
CN(C1=C(N2CCOCC2)C(=O)c2ccccc2C1=O)c1ccccc1,IC50,Nonstructural protein 1,11.9 µM (active)
same,AC50,[3],4.86 µM (active)
same,IC50,[4],> 122 µM (inactive)
C[C@@]12C(=O)N(Cc3ccccc3)CC(=O)N1[C@H]1c3ccccc3OC[C@@H]1[C@@H]2c1ccccc1,AC50,[5],1.65 µM (active)
same,AC50,[1],1.68 µM (active)
same,AC50,[6],2.27 µM (active)
same,AC50,[2],6.27 µM (active)
CC(=O)N1CCC(N2CCN(c3ccccc3F)CC2)CC1,IC50,Coagulation factor XII,> 50 µM (inactive)
same,EC50,Mu-type opioid receptor,92.4 µM (inactive)
same,EC50,[7],1.16 µM (active)
O=C(OCCC12CC3CC(CC(C3)C1)C2)c1ccc(NCc2cc(O)ccc2O)cc1,AC50,[8],1.82 µM (active)
same,AC50,[9],21.7 µM (active)
same,AC50,[10],5.97 µM (active)
Oc1nc2ccccc2n1C1CCN(C(CCc2ccccc2)c2nnnn2C2CCCC2)CC1 (configuration not stated),AC50,[11],13.3 µM (active)
same,AC50,[12],22.4 µM (active)
same,AC50,[13],20.3 µM (active)
same,AC50,[14],18.4 µM (active)
same,AC50,[15],14.1 µM (active)
C[C@@H]1CCCCO[C@H](CN(C)Cc2ccc(C(F)(F)F)cc2)[C@H](C)CN([C@H](C)CO)C(=O)c2cc(NS(=O)(=O)c3ccccc3)ccc2O1,AC50,Paired box protein Pax-8,6.88 µM (active)
same,AC50,[16],> 70 µM (inactive)
C[C@H]1CCCCO[C@@H](CN(C)Cc2ccncc2)[C@@H](C)CN([C@@H](C)CO)C(=O)c2cc(NC(=O)Nc3ccc(C(F)(F)F)cc3)ccc2O1,AC50,Paired box protein Pax-8,7.3 µM (active)
same,AC50,[16],> 70 µM (inactive)
C=CCN1CCc2c(cc(O)c(O)c2Cl)C(c2ccccc2)C1 (configuration not stated),AC50,[17],4.74 µM (active)
same,EC50,Mu-type opioid receptor,92.4 µM (inactive)
same,EC50,[7],0.203 µM (active)

# Source: ChEMBL document CHEMBL1201862, “PubChem BioAssay data set” (2004)
